Laboratory results: US8501732B2, “Aminomethyl quinolone compounds” (Hoffmann-La Roche Inc., priority 2011, dated 2013)

How the values were obtained:
[1] = system: phospho(Ser63)-c-jun in HK-2 cells; assay: Cell-Based Assay for JNK Inhibitors (in-cell ELISA, phospho(Ser63)-c-jun after TNFα); settings: HK-2 cells (human proximal tubule cells), 60 minutes compound, then 10 ng/mL TNFα for 30 minutes
Protocol: Cell-Based Assay for JNK Inhibitors
The cell-based assay employed the in-cell ELISA method to determine the ability of compounds to prevent the generation of phospho(Ser63)-c-jun in HK-2 cells (human proximal tubule cells) in response to stimulation with tumor necrosis factor α (TNFα). In brief, for quantification of phospho(Ser63)-c-jun, the cells (in 96-well format) were fixed and permeablized then incubated sequentially with a rabbit anti-phospho-c-jun First Antibody specific for the presence of the phospho-Ser63 epitope and a donkey anti-rabbit IgG Second Antibody linked to horseradish peroxidase (HRP) for colorimetric quantitation of binding. […] Blank wells received no TNFα stimulation or compound. Additional Control wells received TNFα stimulation, but no compound.
Stock cultures of HK-2 cells (ATCC, Manassas, Va.) were grown under a 5% CO2/[…] atmosphere at 37 degrees C. in Keratinocyte-SFM medium (KSFM, Invitrogen, Grand Island, N.Y.) containing 5 μg/L epidermal growth factor and 5 mg/L bovine pituitary extract (both supplied with the medium), additionally supplemented with 10% (v/v) fetal calf serum (FCS; Invitrogen, Grand Island, N.Y.) and 1% (v/v) antibiotic-antimycotic (ABAM: Sigma, St. Louis, Mo.). For assays, cells were seeded in collagen coated 96-well polystyrene plates (BD Biosciences, Franklin Lakes, N.J.) at a density of 40,000 cells/well and cultured for 24 h in the same medium (100 μL/well) followed by a further 16-24 h in 100 μL of similar medium, but without FCS. […] Plates were then allowed to stand at room temperature for 20 minutes before being washed with 200 μL/well of PBS. (Further steps were performed immediately or the plates were stored at 4 degrees C. and the assay completed the next day.) To each well was added 100 μL 1% (v/v) TritonX-100 (Sigma, St. Louis, Mo.) in PBS followed by 20 minutes standing at room temperature, washing with 200 μL/well PBS, the addition of 100 μL/well of Quenching buffer (1% (v/v) hydrogen peroxide (Sigma, St. Louis, Mo.) and 0.1% (w/v) sodium azide (Fisher Scientific, Fair Lawn, N.J.)) in PBS and a further 20 minutes at room temperature. Plates were then washed twice with 200 μL/well of 0.1% (v/v) Tween-20 (Teknova, Hollister, Calif.) in PBS before addition of 200 μL/well of 2% BSA/0.1% Tween-20 in PBS and a further 1 hour at room temperature. […] After a further one hour, rabbit anti-phospho-c-jun-Ser63 is added directly to the solution in the Blank wells resulting in 1:250 dilution of this antibody. Plates were then placed on a slowly rotating platform at 4 degrees C. overnight. Wells were then washed thrice with 200 μL/well PBS/0.1% Tween-20. After addition of the third wash, the plates were placed on a slowly rotating platform for 15 minutes at room temperature. The final PBS/Tween20 wash was then replaced with 100 μL/well of donkey anti-rabbit HRP-labeled Second Antibody (Jackson ImmunoResearch Laboratory, West Grove, Pa.) diluted 1:10,000 in Antibody Dilution Buffer and the plates placed on a slowly rotating platform for 1 hour at room temperature. Wells were then washed four times with 200 μL/well PBS/0.1% Tween-20, including slow rotation for 30 minutes for the third wash and 10 minutes for the final wash. The wells were then washed once with 200 μL PBS without Tween-20. […] Absorbance was determined at a 450 nm wavelength using a spectrophotometer (Molecular Devices SpectraMax 250).

JNK1 = JNK1 (Homo sapiens (Human), UniProt P45983); assay: In Vitro JNK1 Assay (TR-FRET, phosphorylation of GST-c-Jun); format: biochemical; settings: 0.2 nM active JNK1 kinase, 26.7 nM GST-c-Jun, 2 μM ATP, 30 min at room temperature
Procedure, shortened: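 GST-c-Jun (residues 1-79) phosphorylation by JNK1 in 50 mM HEPES pH 7.0, MgCl2, 1 mM DTT, 0.1 mM Na3VO4, 0.2 mg/mL BSA, 30 min at room temperature. Stopped with EDTA plus anti-phospho-c-Jun antibody and read by TR-FRET 1 hr later. IC50 from percent inhibition over 10 serial dilutions.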

Sequence of JNK1 (P45983 whole entry, the tested form may be a part): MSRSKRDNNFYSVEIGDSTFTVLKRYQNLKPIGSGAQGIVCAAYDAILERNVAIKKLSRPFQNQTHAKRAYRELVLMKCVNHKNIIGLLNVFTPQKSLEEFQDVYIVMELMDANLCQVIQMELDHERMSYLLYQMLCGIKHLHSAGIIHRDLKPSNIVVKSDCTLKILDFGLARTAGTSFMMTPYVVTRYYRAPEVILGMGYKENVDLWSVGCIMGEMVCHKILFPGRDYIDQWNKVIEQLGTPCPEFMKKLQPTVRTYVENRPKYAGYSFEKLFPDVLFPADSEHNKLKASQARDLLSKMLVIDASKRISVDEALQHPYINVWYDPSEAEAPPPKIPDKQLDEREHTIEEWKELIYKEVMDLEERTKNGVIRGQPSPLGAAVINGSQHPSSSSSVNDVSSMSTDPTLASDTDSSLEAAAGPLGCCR

SMILES | EC50 [1] [nM] | IC50 (JNK1) [nM]
COc1cccc(Cn2ccc(C(=O)NCc3cn(-c4ccccc4)c4cc(Cl)ccc4c3=O)cc2=O)c1 [Example I-38, 1-(3-Methoxy-benzyl)-2-oxo-1,2-dihydro-pyridine-4-carboxylic acid (7-chloro-4-oxo-1-phenyl-1,4-dihydro-quinolin-3-ylmethyl)-amide] | 16000 | 72
O=C(NCc1cn(-c2ccccc2)c2cc(Cl)ccc2c1=O)c1ccn(Cc2ccccc2Cl)c(=O)c1 [Example I-39, 1-(2-Chloro-benzyl)-2-oxo-1,2-dihydro-pyridine-4-carboxylic acid (7-chloro-4-oxo-1-phenyl-1,4-dihydro-quinolin-3-ylmethyl)-amide] | 10000 | 76
O=C(NCc1cn(-c2ccccc2)c2cc(Cl)ccc2c1=O)c1ccc(N2CCOCC2)nc1 [Example I-40, N-(7-Chloro-4-oxo-1-phenyl-1,4-dihydro-quinolin-3-ylmethyl)-6-morpholin-4-yl-nicotinamide] | 100000 | 84
CN(C)c1cc(C(=O)NCc2cn(-c3ccccc3)c3cc(Cl)ccc3c2=O)ccn1 [Example I-41, N-(7-Chloro-4-oxo-1-phenyl-1,4-dihydro-quinolin-3-ylmethyl)-2-dimethyl amino-isonicotinamide] | 28000 | 88
O=C(NCc1cn(-c2ccccc2)c2cc(Cl)ccc2c1=O)c1ccc2scnc2c1 [Example I-42, Benzothiazole-5-carboxylic acid (7-chloro-4-oxo-1-phenyl-1,4-dihydro-quinolin-3-ylmethyl)-amide] | 25000 | 89
O=C(NCc1cn(-c2ccccc2)c2cc(Cl)ccc2c1=O)c1ccc(-c2ncn[nH]2)cc1 [Example I-43, N-(7-Chloro-4-oxo-1-phenyl-1,4-dihydro-quinolin-3-ylmethyl)-4-(2H-[1,2,4]triazol-3-yl)-benzamide] | 100000 | 100
COc1ccc(C(=O)NCc2cn(-c3ccccc3)c3cc(Cl)ccc3c2=O)cc1OC [Example I-57, N-(7-Chloro-4-oxo-1-phenyl-1,4-dihydro-quinolin-3-ylmethyl)-3,4-dimethoxy-benzamide] | 26000 | 80
CC(C)(C)OC(=O)N1CC2CC1CN2c1ccc(C(=O)NCc2cn(-c3ccccc3)c3cc(Cl)ccc3c2=O)cn1 (stereo not drawn) [Example I-62, 5-{5-[(7-Chloro-4-oxo-1-phenyl-1,4-dihydro-quinolin-3-ylmethyl)-carbamoyl]-pyridin-2-yl}-2,5-diaza-bicyclo[2.2.1]heptane-2-carboxylic acid tert-butyl ester] | 13000 | 11
O=C(NCc1cn(-c2ccccc2)c2cc(Cl)ccc2c1=O)c1ccc(N2CCC(CCO)CC2)nc1 [Example I-63, 4-(2-Hydroxy-ethyl)-3,4,5,6-tetrahydro-2H-[1,2′]bipyridinyl-5′-carboxylic acid (7-chloro-4-oxo-1-phenyl-1,4-dihydro-quinolin-3-ylmethyl)-amide] | 3800 | 17
O=C(NCc1cn(-c2ccccc2)c2cc(Cl)ccc2c1=O)c1ccc(N(CCO)CCO)nc1 [Example I-64, 6-[Bis-(2-hydroxy-ethyl)-amino]-N-(7-chloro-4-oxo-1-phenyl-1,4-dihydro-quinolin-3-ylmethyl)-nicotinamide] | 100000 | 18
O=C(NCc1cn(-c2ccccc2)c2cc(Cl)ccc2c1=O)c1ccc(N2CCCCC2)nc1 [Example I-65, 3,4,5,6-Tetrahydro-2H-[1,2′]bipyridinyl-5′-carboxylic acid (7-chloro-4-oxo-1-phenyl-1,4-dihydro-quinolin-3-ylmethyl)-amide] | 40000 | 19
CN(CCO)c1ccc(C(=O)NCc2cn(-c3ccccc3)c3cc(Cl)ccc3c2=O)cn1 [Example I-66, N-(7-Chloro-4-oxo-1-phenyl-1,4-dihydro-quinolin-3-ylmethyl)-6-[(2-hydroxy-ethyl)-methyl-amino]-nicotinamide] | 29000 | 19
